# Article PMC9738192, “Lupane Triterpene Derivatives Improve Antiproliferative Effect on Leukemia Cells through Apoptosis Induction” (Molecules, 2022)
# Legend:
# HL60 cell line = assay: Bioassay of viability in leukemic cell lines (DAPI, flow cytometry); type: cell-based, human; details: for IC50: Homo sapiens, HL-60, HL60, 48 h
# From the text: (§1) Chronic myeloid leukemia (K562; ATCC CCL-243), acute myeloid leukemia (HL60; ATCC CCL-240), and green monkey kidney cells (Vero, ATCCCCL-81) from the American Type Culture Collection (ATCC) were provided by María Antonieta Chávez Gónzalez from Unidad de Investigación Oncológica, Hospital de Oncología, Centro Médico Nacional, Instituto Mexicano del Seguro Social (IMSS, Ciudad de México, México). The K562 cell line was maintained with RPMI medium at 10% FBS, the HL60 cell line was maintained with IMDM medium at 20% FBS, and the VERO cell line was maintained with DMEM medium at 10% FBS; 1% penicillin-streptomycin was added to both cell lines and incubated at an atmosphere of culture with 95% humidity and 5% CO2 at 37 °C. All evaluation was performed between 4 and 5 cell passages.
# (§2) In all cases, medium with DMSO (0.1%) was used as a negative control, and etoposide was used as positive control for K562, HL60, Vero cell lines, and normal MNC. All tests were carried out in triplicate.
# (§3) A total of 2 × 10^5 cells/well were cultured into 24-well plates and treated with different concentrations of four compounds (0.1, 1, 10, and 100 μg/mL) for 48 h. At the end of this time, the cells were collected and stained with 4′,6-diamidino-2-phenylindole dihydrochloride (DAPI) at 500 ng/mL for 30 min, according to manufacturer instructions, for 15 min in darkness. The samples were then analyzed by flow cytometry using a CytoFlex flow cytometer (Beckman Coulter, Indianapolis, IN, USA).
# (§4) All cytometric data were analyzed using FlowJo^TM v10.6 software. Results of viability are expressed as the concentration of agent that reduces cell growth by 50% (IC50), calculated by GraphPad Prism 5 software. The data were expressed as means ± SEM. Statistical significance was calculated with a one-way analysis of variance (ANOVA) followed by Dunnett’s post-hoc test, applying a p < 0.05 significance level.
# K562 cell line [1] = assay: as above; type: cell-based, human; details: for IC50: Homo sapiens, K562, 48 h
# From the text: as §1, §2, §3, §4
# Vero cell line = assay: Bioassay of viability in Vero cell line (SRB); type: cell-based, green monkey; details: Chlorocebus sabaeus; Vero normal cell line, 48 h
# From the text: as §1
# The cells (1 × 10^4 cells/well) were seeded onto 96-well plates and incubated at 37 °C and 5% CO2 until reaching 70–80% confluence. The medium was replaced with fresh medium containing the […] different concentrations (0.1, 1, 10, and 100 μg/mL) of compounds for 48 h. After 100 μL of 10% trichloroacetic acid were added to each well, and cells were incubated for 30 min at 4 °C. Then the supernatant was removed, 100 μL of sulforhodamine B (SRB) at 0.1% with 1% of acetic acid were added, and incubated again for 15 min. Subsequently, washings were carried out with 1% acetic acid; and finally, the dye was solubilized with 200 uL of tris-base at 10 mM; and the optical density was measured at 560 nm using a GloMax spectrophotometer (Promega, WI, USA).
# as §4
# [2] = tested on: peripheral blood mononuclear cells (MNC); assay: Viability test in normal mononuclear cells (DAPI, flow cytometry); type: cell-based; details: Homo sapiens, PBMC, 48 h
# Method: Normal mononuclear cells were obtained from normal human peripheral blood monocytes and donated by the corresponding author (Moo-Puc) of the manuscript submitted. The MNC was purified with FicollPaque Plus (Pharmacia Biotech, Uppsala, Sweden) by centrifugation at 400× g at room temperature for 30 min according to the manufacturer’s protocol. Once the MNC were obtained, they were resuspended in RPMI medium (ATCC) with 10% FBS, and they were counted using a hemocytometer, previously stained with a trypan blue solution, verifying the viability of 95% [61].
# Cells were plated at 2 × 10^5 cells/well in 24-well plates and incubated with different concentrations of compounds T1m (0.1, 1, 10, and 100 μg/mL) for 48 h. RPMI with 10% FBS was used as a culture medium for cell growth. After this time, cells were collected, washed with PBS, and stained with DAPI at 500 ng/mL for 30 min, according to manufacturer instructions. Cells analysis was carried out in a CytoFlex flow cytometer (Beckman Coulter, Indianapolis, IN, USA).
# All cytometric data were analyzed using FlowJo^TM v10.6 software. […] The data were expressed as means ± SEM. Statistical significance was calculated with a one-way analysis of variance (ANOVA) followed by Dunnett’s post-hoc test, applying a p < 0.05 significance level.
# K562 cells [3] = assay: Cell cycle assay (DAPI, flow cytometry); type: cell-based, human
# Method: One million cells of K562 were cultured in 12-well plates and incubated for 18, 24, and 48 h with compound T1m at two different concentrations (19.5 and 39.0 μg/mL). After this time, the cells were collected and centrifuged at 300× g at room temperature for 5 min. The cells were resuspended in PBS, added absolute ethanol on ice, and incubated for 1 h at 4 °C. After that. Cells were centrifuged at 300× g at 4 °C for 5 min. Next, cells were washed with PBS 3% FBS and permeabilized for 20 min with 0.1% triton. After, the cells were stained with DAPI at 500 ng/mL for 1 h. After this procedure, cells were analyzed using […]. Cells analysis was carried out in an Attune flow cytometer (Thermo Fisher Scientific, Carlsbad, CA, USA).
# K562 cells [4] = assay: Apoptosis assay (annexin V-FITC / 7-AAD); type: cell-based, human
# Method: Cells (2 × 10^5) were cultured in 24-well plates and treated with compound T1m at two different concentrations (19.5 and 39.0 µg/mL), to later be incubated for 18, 24, and 48 h. After this time, cells were washed with PBS and stained with annexin V-FITC and 7-AAD apoptosis kit (BD Bioscience) and incubated in the dark for 15 min. Then they were analyzed by CytoFlex flow cytometry (Beckman Coulter, Indianapolis, IN, USA).
# K562 cell line [5] = assay: Assessment of intracellular reactive oxygen species (CM-H2DCFDA); type: cell-based, human
# Method: Cells (1× 10^5) were cultured in 12-well plates and were stained with 10 μM of chloromethyl 2′,7′-dichlorodihydrofluorescein diacetate (CM-H2DCFDA) for 30 min at 37 °C. Briefly, the cells were treated with compound 1m at two different concentrations (19.5 and 39.0 µg/mL) and control (H2O2 at 50 µM) to later be incubated for 2 and 4 h. After this time, cells were analyzed using CytoFlex flow cytometry (Beckman Coulter, Indianapolis, IN, USA).
# K562 cell line [6] = assay: Assessment of mitochondrial membrane potential (rhodamine 123); type: cell-based, human; details: 18 h, Rho-123
# Method: Cells (1× 10^5) were cultured in 12-well plates and treated with compound 1m at two different concentrations (19.5 and 39.0 µg/mL), to later be incubated for 18 h. After this time, cells were stained with 5 μM of rhodamine 123 (Rho-123) and incubated for 30 min at 37 °C. Briefly, cells were washed with PBS and analyzed using a Cytoflex flow cytometer (Beckman Coulter, Indianapolis, IN, USA).
smiles,measurement,setting,value
"COc1cc([C@@H]2c3cc4c(cc3[C@@H](O[C@@H]3O[C@@H]5CO[C@@H](C)O[C@H]5[C@H](O)[C@H]3O)[C@H]3COC(=O)[C@H]23)OCO4)cc(OC)c1O [Etoposide, etoposide, reference compound]",IC50,HL60 cell line,1.3 ± 0.3 µg/mL
same,selectivity index (IS),HL60 cell line; IC50 MNC over IC50 HL60,> 76.92
same,selectivity index (IS),HL60 cell line; IC50 Vero over IC50 HL60,22.63
same,IC50,K562 cell line [1],14.7 ± 1.2 µg/mL
same,selectivity index (IS),K562 cell line [1]; IC50 MNC over IC50 K562,> 6.80
same,selectivity index (IS),K562 cell line [1]; IC50 Vero over IC50 K562,2.00
same,IC50,Vero cell line,29.4 ± 1.1 µg/mL
same,IC50,[2],> 100 µg/mL
same,G2 population,"K562 cells [3]; K562, 14.7 μg/mL, 18 h, positive control",increase
same,apoptotic cell population (positive annexin V-FITC),"K562 cells [4]; K562, positive control, 18 h",13.34 ± 0.04%
same,apoptotic cell population (positive annexin V-FITC),"K562 cells [4]; K562, positive control, 24 h",17.91 ± 0.06%
same,apoptotic cell population (positive annexin V-FITC),"K562 cells [4]; K562, positive control, 48 h",32.60 ± 0.55%
same,ROS increase vs negative control,"K562 cell line [5]; K562, positive control, 2 h",six-fold
"OO [Compound H2O2, H2O2, reference compound]",ROS increase vs negative control,"K562 cell line [5]; K562, damage control (50 µM), 2 h",seven-fold
"C=C(C)[C@@H]1CC[C@]2(C(=O)O)CC[C@]3(C)C(CCC4[C@@]5(C)CC[C@@H](OC(C)=O)[C@](C)(CO)C5CC[C@]43C)C12 (stereo partly drawn) [Compound T1Ac, 3α-acetyl-24-hydroxylup-20(29)-en-28-oic acid]",IC50,HL60 cell line,> 100 µg/mL
same,IC50,K562 cell line [1],> 100 µg/mL
same,IC50,Vero cell line,> 200 µg/mL
"C=C(C)[C@@H]1CC[C@]2(C(=O)O)CC[C@]3(C)C(CCC4[C@@]5(C)CC[C@@H](O)[C@](C)(CO)C5CC[C@]43C)C12 (stereo partly drawn) [Compound T1, 3α,24-dihydroxylup-20(29)-en-28-oic acid]",IC50,HL60 cell line,> 100 µg/mL
same,IC50,K562 cell line [1],100 ± 1 µg/mL
same,selectivity index (IS),K562 cell line [1]; IC50 Vero over IC50 K562,1.37
same,IC50,Vero cell line,137.2 ± 1.1 µg/mL
"C=C(C)[C@@H]1CC[C@]2(C(=O)O)CC[C@]3(C)C(CCC4[C@@]5(C)CC[C@@H](OC)[C@](C)(CO)C5CC[C@]43C)C12 (stereo partly drawn) [Compound T1m, 3α-methoxy-24-hydroxylup-20(29)-en-28-oic acid]",IC50,HL60 cell line,68.6 ± 1.2 µg/mL
same,selectivity index (IS),HL60 cell line; IC50 MNC over IC50 HL60,1.26
same,IC50,K562 cell line [1],39.5 ± 1.1 µg/mL
same,selectivity index (IS),K562 cell line [1]; IC50 MNC over IC50 K562,2.19
same,selectivity index (IS),K562 cell line [1]; IC50 Vero over IC50 K562,1.69
same,IC50,Vero cell line,66.8 ± 1 µg/mL
same,IC50,[2],86.5 ± 1.2 µg/mL
same,cell cycle distribution vs negative control,"K562 cells [3]; K562, 19.5 μg/mL, 18 h",No difference
same,sub-G0 population,"K562 cells [3]; K562, 39.0 μg/mL, 18 h",7.29 ± 0.05%
same,sub-G0 population,"K562 cells [3]; K562, 39.0 μg/mL, 24 h",13.30 ± 1.20%
same,sub-G0 population,"K562 cells [3]; K562, at IC50 (39.0 μg/mL), 48 h",85.85 ± 0.15%
same,apoptotic cell population (positive annexin V-FITC),"K562 cells [4]; K562, 19.5 μg/mL, 48 h",11.91 ± 1.04%
same,apoptotic cell population (positive annexin V-FITC),"K562 cells [4]; K562, 39.0 μg/mL, 18 h",12.50 ± 0.65%
same,apoptotic cell population (positive annexin V-FITC),"K562 cells [4]; K562, 39.0 μg/mL, 48 h",27.47 ± 1.23%
same,apoptotic cell population (positive annexin V-FITC),"K562 cells [4]; K562, at IC50 (39.0 μg/mL), 24 h",24.35 ± 1.04%
same,ROS increase vs negative control,"K562 cell line [5]; K562, 19.5 μg/mL, 2 h",five-fold
same,ROS increase vs negative control,"K562 cell line [5]; K562, 19.5 μg/mL, 4 h",six-fold
same,ROS increase vs negative control,"K562 cell line [5]; K562, 39.0 μg/mL, 2 h",seven-fold
same,ROS increase vs negative control,"K562 cell line [5]; K562, 39.0 μg/mL, 4 h",nine-fold
same,MMP (mitochondrial membrane potential) compared with negative control,"K562 cell line [6]; K562, 19.5 μg/mL",approximately 45%
same,MMP (mitochondrial membrane potential) compared with negative control,"K562 cell line [6]; K562, 39.0 μg/mL",67%
"C=C(C)[C@@H]1CC[C@]2(C(=O)OC)CC[C@]3(C)C(CCC4[C@@]5(C)CC[C@H]6OC(C)(C)OC[C@@]6(C)C5CC[C@]43C)C12 (stereo partly drawn) [Compound T2COOMe, methyl ester of 3α,23-O-isopropylidenyl-3α,23-dihydroxylup-20(29)-en-28-oic acid]",IC50,HL60 cell line,> 100 µg/mL
same,IC50,K562 cell line [1],> 100 µg/mL
same,IC50,Vero cell line,> 200 µg/mL
"C=C(C)[C@@H]1CC[C@]2(C(=O)O)CC[C@]3(C)C(CCC4[C@@]5(C)CC[C@H]6OC(C)(C)OC[C@@]6(C)C5CC[C@]43C)C12 (stereo partly drawn) [Compound T2, 3α,23-O-isopropylidenyl-3α,23-dihydroxylup-20(29)-en-28-oic acid]",IC50,HL60 cell line,> 100 µg/mL
same,IC50,K562 cell line [1],> 100 µg/mL
same,IC50,Vero cell line,> 200 µg/mL
